Test: xn = mol fraction of the nth substance listed
Conditions: 100 kPa, Liquid; for speed of sound: Single path-length method; for mass density: Vibrating tube method

CCCCCOC(C)=O [pentyl ethanoate] + CCCCN(CCCC)CCCC
Conditions	mass density, 293.15 K [kg/m3]	mass density, 298.15 K [kg/m3]	mass density, 303.15 K [kg/m3]	mass density, 308.15 K [kg/m3]	mass density, 313.15 K [kg/m3]	speed of sound, 293.15 K [m/s]	speed of sound, 298.15 K [m/s]	speed of sound, 303.15 K [m/s]	speed of sound, 308.15 K [m/s]	speed of sound, 313.15 K [m/s]
x2 = 0	876.248	871.32	865.782	860.581	855.357	1243	1220.7	1196.8	1174.2	1152.3
x2 = 0.0575	865.692	860.668	855.073	849.94	844.475	1244.2	1221.5	1197.8	1175.7	1153.7
x2 = 0.1106	856.436	851.526	846.117	841.075	835.813	1245.2	1222.5	1198.8	1177.2	1155.7
x2 = 0.2013	842.712	837.942	832.841	827.884	823.003	1247.7	1224.3	1201.8	1179.7	1158.8
x2 = 0.3229	827.693	823.116	818.312	813.425	808.951	1249.6	1227.8	1205.4	1184.1	1163.1
x2 = 0.4109	818.21	813.799	809.136	804.737	800.073	1251.4	1229.9	1207.8	1187.2	1167.2
x2 = 0.5032	809.565	805.278	800.772	796.389	791.981	1253.8	1232.5	1210.5	1190.4	1170
x2 = 0.6202	799.842	795.692	791.362	787.138	782.852	1255.6	1235	1214.6	1194.1	1174.1
x2 = 0.7403	791.114	787.079	782.913	778.804	774.698	1258.8	1238.5	1217.8	1198.2	1178.9
x2 = 0.8105	786.994	782.989	778.908	774.712	770.827	1259.7	1240.2	1219.9	1201	1181.2
x2 = 0.9205	780.619	776.717	772.741	768.959	764.799	1262.4	1243.1	1223	1204.5	1185.6

CCCCN(CCCC)CCCC [tributylamine] + CCOC(C)=O
Conditions	mass density, 293.15 K [kg/m3]	mass density, 298.15 K [kg/m3]	mass density, 303.15 K [kg/m3]	mass density, 308.15 K [kg/m3]	mass density, 313.15 K [kg/m3]	speed of sound, 293.15 K [m/s]	speed of sound, 298.15 K [m/s]	speed of sound, 303.15 K [m/s]	speed of sound, 308.15 K [m/s]	speed of sound, 313.15 K [m/s]
x1 = 0.0502	886.034	880.238	874.248	868.137	862.077	1168.6	1146.5	1124.6	1102.3	1080.9
x1 = 0.104	872.134	866.571	860.881	854.773	848.939	1172.6	1152.6	1129.9	1108.7	1088.3
x1 = 0.2041	850.473	845.352	840.168	834.885	829.51	1182.8	1162.8	1140.7	1119.9	1098.8
x1 = 0.3022	834.126	829.336	824.418	819.471	814.442	1193.2	1172.8	1151.3	1131.6	1109.3
x1 = 0.402	820.855	816.274	811.568	806.892	802.143	1203.3	1182.8	1161.7	1141.7	1120.9
x1 = 0.5017	810.036	805.655	801.215	796.734	792.21	1213.4	1194	1172.7	1152.9	1132.9
x1 = 0.6003	801.163	796.948	792.639	788.358	784.016	1223	1203.8	1182.3	1163.6	1143.3
x1 = 0.7004	793.656	789.584	785.465	781.294	777.107	1233.6	1214.6	1193.2	1174.6	1154.3
x1 = 0.8009	787.308	783.362	779.404	775.399	771.342	1244	1224.7	1205.4	1185.6	1166.1
x1 = 0.9011	781.785	777.942	774.089	770.192	766.343	1253.8	1234.6	1215.4	1196.5	1177.7
x1 = 1	777.006	773.283	769.552	765.811	762.061	1264.2	1245.2	1226.2	1207.4	1188.8

— the NIST ThermoML archive (doi:10.1021/acs.jced.8b01120)
